Test results: patent US8586555B2, “Immunomodulatory compositions, formulations, and methods for use thereof” (Dynavax Technologies Corporation, priority 2001, dated 2013)

What was measured:
Type in all cases: cell-based
[1] = system: human peripheral blood mononuclear cells (hPBMC); assay: human PBMC assay, Example 5 (96 well plates, premixed); conditions: for IFN-α Mean / IFN-γ Mean: mean of donors 28051-28054
Procedure: (§1) Hexameric oligonucleotides were tested for immunomodulatory activity alone and complexed with lactic acid/glycolic acid copolymer microcarrier beads using a human peripheral blood mononuclear cells (hPBMC) assay. Peripheral blood was collected from healthy volunteers by venipuncture using heparinized syringes. Blood was layered onto a FICOLL® (Amersham Pharmacia Biotech) cushion and centrifuged. hPBMCs, located at the FICOLL® interface, were collected, then washed twice with cold phosphate buffered saline (PBS). The cells were resuspended and cultured in 48 well plates at 2×10^6 cells/mL at 37° C. in RPMI 1640 with 10% heat-inactivated human AB serum plus 50 units/mL penicillin, 50 μg/mL streptomycin, 300 μg/mL glutamine, 1 mM sodium pyruvate, and 1×MEM non-essential amino acids (NEAA).
(§2) Oligonucleotides were tested as single agents, or in combination with PLGA microspheres (unmodified or cationic). All oligonucleotides contained 100% phosphorothioate linkages and were tested at 20 μg/ml. The PLGA microcarriers were used at 250 μg/ml. When oligos were tested with PLGA microcarriers, the oligo and the microcarriers were added at the same time to the culture. The cells were cultured in the in the presence of test samples for 24 hours, then cell-free medium was collected from each well and assayed for IFN-γ and IFN-α concentration. Two different oligonucleotides were used as controls: a first oligonucleotide known to have immunostimulatory activity (a 22mer oligonucleotide containing an ISS (“ISS+,” 5′-[…]-3′(SEQ ID NO:2)) and a second oligonucleotide of similar sequence but lacking immunostimulatory activity (“ISS−,” 5′-[…]-3′ (SEQ ID NO:1)). SAC (PANSORBIN® CalBiochem, 1/5000 dilution) and a untreated culture were used as additional positive and negative controls, respectively. SAC contains Staph. aureus (Cowan I) cell material. All samples were assayed in duplicate.
(§3) IFN-γ and IFN-α were assayed using CYTOSCREEN™ ELISA kits from BioSource International, Inc., according to the manufacturer's instructions.
(§4) The immunomodulatory activity of the oligonucleotides used in Examples 3 and 4 was confirmed with the human PBMC assay using PBMCs from an additional four donors (donors 28051-28054). Oligonucleotides were tested alone or in combination with cationic PLGA as described in Example 3, except that 96 well plates were used instead of 48 well plates and the oligonucleotides were premixed with the cationic microspheres at room temperature for 15 minutes before they were added to the culture, rather than being added simultaneously to the culture.

[2] = system: human peripheral blood mononuclear cells (hPBMC); assay: human PBMC assay, Example 3 (oligo and PLGA added at the same time, 48 well plates); conditions: for IFN-α / IFN-γ: oligo 20 μg/ml, PLGA 250 μg/ml, 24 hours; for IFN-α Mean / IFN-γ Mean: mean of donors 28033, 28034
Procedure: as §1, §2, §3

[3] = system: human peripheral blood mononuclear cells (hPBMC); assay: human PBMC assay, Example 4 (oligos and PLGA premixed 15 minutes); conditions: for IFN-α Mean / IFN-γ Mean: mean of donors 28044, 28045
Procedure: as §1, §2, §3
Additional hexameric and pentameric oligonucleotides were tested for immunomodulatory activity in the PBMC assay. Oligonucleotides 6-6 (5′-TCGAGA-3′), 6-8 (5′-GTCGAC-3′), 6-9 (5′-GTCGTT-3′), 6-2 (5′-TCGTTT-3′), 6-3 (5′-TTCGTT-3′), 6-4 (5′-TTTCGT-3′), 5-1 (5′-TCGTC-3′), and 5-2 (5′-TCGTT-3′) were tested alone or in combination with cationic PLGA as described in Example 3 except that the oligos and PLGA were premixed for 15 minutes room temperature before addition to the cultures. The test articles were assayed using PBMC isolated from donors 28044 and 28045.

[4] = system: human peripheral blood mononuclear cells (hPBMC); assay: human PBMC assay, Example 7 (oligo 20 μg/ml, cPLGA 100 μg/ml); conditions: for IFN-α Mean / IFN-γ Mean: mean of donors 28115-28118
Procedure: as §1, §2, §3, §4
Additional oligonucleotides, some incorporating modified bases, were tested for immunomodulatory activity in the human PBMC assay. Oligonucleotides were tested alone or in combination with cPLGA as described in Example 5. The oligonucleotides were premixed with the cationic PLGA microspheres for 15 minutes at room temperature at concentrations of 20 μg/ml and 100 μg/ml, respectively.

[5] = system: human peripheral blood mononuclear cells (hPBMC); assay: human PBMC assay, Example 6
Procedure: as §1, §2, §3, §4
Additional oligonucleotides were tested for immunomodulatory activity in the human PBMC assay. Oligonucleotides were tested alone or in combination with cPLGA as described in Example 5.
Additional oligonucleotides were tested using hPBMCs from volunteers 154-157 using the same assay. Results, which are shown in Table 7, confirm the activity of oligonucleotides fitting the formula 5′-X1TCGX2-3′, where the oligonucleotide is a 3-6mer, X1 is zero or one nucleotide and X2 is zero to three nucleotides.

[6] = delivered as IMO/MC complexes (cPLGA)
[7] = in combination with cationic PLGA

Substance: 5′-AACGTT-3′ [Oligonucleotide 6-16]
- immunomodulatory activity [1, 6]: variable activity
- IFN-α ([1]; donor 28051): 2 pg/mL
- IFN-γ ([1]; donor 28051): 1 pg/mL
- IFN-α ([1]; donor 28052): 1 pg/mL
- IFN-γ ([1]; donor 28052): 2 pg/mL
- IFN-α ([1]; donor 28053): 1 pg/mL
- IFN-γ ([1]; donor 28053): 2 pg/mL
- IFN-α ([1]; donor 28054): 2 pg/mL
- IFN-γ ([1]; donor 28054): 8 pg/mL
- IFN-α Mean [1]: 2 pg/mL
- IFN-γ Mean [1]: 3 pg/mL
- IFN-α ([2]; donor 28033): 3 pg/mL
- IFN-γ ([2]; donor 28033): 0 pg/mL
- IFN-α ([2]; donor 28034): 48 pg/mL
- IFN-γ ([2]; donor 28034): 3 pg/mL
- IFN-α induction [2, 7]: induce IFN-α in one of the two donors
- IFN-α Mean [2]: 26 pg/mL
- IFN-γ Mean [2]: 2 pg/mL

Substance: 5′-TCGTTT-3′ [Oligonucleotide 6-2]
- IFN-α ([3]; donor 28044): 0 pg/mL
- IFN-γ ([3]; donor 28044): 30 pg/mL
- IFN-α ([3]; donor 28045): 0 pg/mL
- IFN-γ ([3]; donor 28045): 0 pg/mL
- IFN-α Mean [3]: 0 pg/mL
- IFN-γ Mean [3]: 15 pg/mL
- IFN-α ([4]; donor 28115): 0 pg/mL
- IFN-γ ([4]; donor 28115): 3 pg/mL
- IFN-α ([4]; donor 28116): 0 pg/mL
- IFN-γ ([4]; donor 28116): 0 pg/mL
- IFN-α ([4]; donor 28117): 0 pg/mL
- IFN-γ ([4]; donor 28117): 5 pg/mL
- IFN-α ([4]; donor 28118): 0 pg/mL
- IFN-γ ([4]; donor 28118): 0 pg/mL
- IFN-α Mean [4]: 0 pg/mL
- IFN-γ Mean [4]: 2 pg/mL
- immunomodulatory activity ([1]; delivered alone): inactive
- immunomodulatory activity [1, 6]: highly active
- IFN-α ([1]; donor 28051): 0 pg/mL
- IFN-γ ([1]; donor 28051): 1 pg/mL
- IFN-α ([1]; donor 28052): 2 pg/mL
- IFN-γ ([1]; donor 28052): 0 pg/mL
- IFN-α ([1]; donor 28053): 10 pg/mL
- IFN-γ ([1]; donor 28053): 3 pg/mL
- IFN-α ([1]; donor 28054): 0 pg/mL
- IFN-γ ([1]; donor 28054): 1 pg/mL
- IFN-α Mean [1]: 3 pg/mL
- IFN-γ Mean [1]: 1 pg/mL
- immunomodulatory activity ([5]; delivered as oligonucleotide/MC complex (cPLGA)): highly active
- IFN-α ([5]; donor 28075): 36 pg/mL
- IFN-γ ([5]; donor 28075): 8 pg/mL
- IFN-α ([5]; donor 28076): 6 pg/mL
- IFN-γ ([5]; donor 28076): 18 pg/mL
- IFN-α ([5]; donor 28077): 66 pg/mL
- IFN-γ ([5]; donor 28077): 5 pg/mL
- IFN-α ([5]; donor 28078): 101 pg/mL
- IFN-γ ([5]; donor 28078): 14 pg/mL
- IFN-α Mean ([5]; mean of donors 28075-28078): 53 pg/mL
- IFN-γ Mean ([5]; mean of donors 28075-28078): 11 pg/mL

Substance: 5′-ATCGAT-3′ [Oligonucleotide 6-7]
- immunomodulatory activity ([1]; delivered alone): inactive
- immunomodulatory activity [1, 6]: highly active
- IFN-α ([1]; donor 28051): 1 pg/mL
- IFN-γ ([1]; donor 28051): 1 pg/mL
- IFN-α ([1]; donor 28052): 0 pg/mL
- IFN-γ ([1]; donor 28052): 1 pg/mL
- IFN-α ([1]; donor 28053): 4 pg/mL
- IFN-γ ([1]; donor 28053): 2 pg/mL
- IFN-α ([1]; donor 28054): 1 pg/mL
- IFN-γ ([1]; donor 28054): 2 pg/mL
- IFN-α Mean [1]: 2 pg/mL
- IFN-γ Mean [1]: 1 pg/mL
- IFN-α ([2]; donor 28033): 8 pg/mL
- IFN-γ ([2]; donor 28033): 0 pg/mL
- IFN-α ([2]; donor 28034): 22 pg/mL
- IFN-γ ([2]; donor 28034): 3 pg/mL
- immunomodulatory activity [2, 7]: active
- IFN-α Mean [2]: 15 pg/mL
- IFN-γ Mean [2]: 2 pg/mL

Substance: 5′-TCGTCG-3′ [Oligonucleotide 6-1]
- immunomodulatory activity ([1]; delivered alone): inactive
- immunomodulatory activity [1, 6]: highly active
- IFN-α ([1]; donor 28051): 0 pg/mL
- IFN-γ ([1]; donor 28051): 2 pg/mL
- IFN-α ([1]; donor 28052): 2 pg/mL
- IFN-γ ([1]; donor 28052): 3 pg/mL
- IFN-α ([1]; donor 28053): 1 pg/mL
- IFN-γ ([1]; donor 28053): 1 pg/mL
- IFN-α ([1]; donor 28054): 4 pg/mL
- IFN-γ ([1]; donor 28054): 2 pg/mL
- IFN-α Mean [1]: 2 pg/mL
- IFN-γ Mean [1]: 2 pg/mL
- IFN-α ([2]; donor 28033): 0 pg/mL
- IFN-γ ([2]; donor 28033): 0 pg/mL
- IFN-α ([2]; donor 28034): 40 pg/mL
- IFN-γ ([2]; donor 28034): 4 pg/mL
- immunomodulatory activity [2, 7]: active
- IFN-α Mean [2]: 20 pg/mL
- IFN-γ Mean [2]: 2 pg/mL
- IFN-α Mean ([5]; mean of volunteers 154-157): 0 pg/mL
- IFN-γ Mean ([5]; mean of volunteers 154-157): 3 pg/mL
- IFN-α ([5]; volunteer 154): 0 pg/mL
- IFN-γ ([5]; volunteer 154): 0 pg/mL
- IFN-α ([5]; volunteer 155): 0 pg/mL
- IFN-γ ([5]; volunteer 155): 0 pg/mL
- IFN-α ([5]; volunteer 156): 0 pg/mL
- IFN-γ ([5]; volunteer 156): 11 pg/mL
- IFN-α ([5]; volunteer 157): 0 pg/mL
- IFN-γ ([5]; volunteer 157): 0 pg/mL

Substance: 5′-TCGTT-3′ [Oligonucleotide 5-2]
- IFN-α ([3]; donor 28044): 0 pg/mL
- IFN-γ ([3]; donor 28044): 4 pg/mL
- IFN-α ([3]; donor 28045): 0 pg/mL
- IFN-γ ([3]; donor 28045): 0 pg/mL
- IFN-α Mean [3]: 0 pg/mL
- IFN-γ Mean [3]: 2 pg/mL
- immunomodulatory activity ([4]; combined with cPLGA): active in two of four donors
- IFN-α ([4]; donor 28115): 0 pg/mL
- IFN-γ ([4]; donor 28115): 8 pg/mL
- IFN-α ([4]; donor 28116): 0 pg/mL
- IFN-γ ([4]; donor 28116): 4 pg/mL
- IFN-α ([4]; donor 28117): 0 pg/mL
- IFN-γ ([4]; donor 28117): 8 pg/mL
- IFN-α ([4]; donor 28118): 0 pg/mL
- IFN-γ ([4]; donor 28118): 0 pg/mL
- IFN-α Mean [4]: 0 pg/mL
- IFN-γ Mean [4]: 5 pg/mL
- immunomodulatory activity ([1]; delivered alone): inactive
- immunomodulatory activity [1, 6]: highly active
- IFN-α ([1]; donor 28051): 1 pg/mL
- IFN-γ ([1]; donor 28051): 1 pg/mL
- IFN-α ([1]; donor 28052): 5 pg/mL
- IFN-γ ([1]; donor 28052): 0 pg/mL
- IFN-α ([1]; donor 28053): 0 pg/mL
- IFN-γ ([1]; donor 28053): 0 pg/mL
- IFN-α ([1]; donor 28054): 2 pg/mL
- IFN-γ ([1]; donor 28054): 1 pg/mL
- IFN-α Mean [1]: 2 pg/mL
- IFN-γ Mean [1]: 0 pg/mL
